From US20240336638A1, “IMIDAZOLE COMPOUND, AND INTERMEDIATE AND APPLICATION THEREOF” (priority 2021, published 2024)

Experiments:
[1] = system: AA-induced platelet aggregation; test: Inhibitory effect on AA-induced platelet aggregation in rats in vitro (washed platelets); assay type: cell-based, rat; conditions: 1*10^−4 M
Method: Several experimental groups were established, including a blank control group, an AA (arachidonic acid) model control group, and various test compounds. Each test compound had three concentration groups: 10^−3 M, 10^−4 M, and 10^−5 M. The data from the blank and model control group were shared among the different drug concentration groups as a control.
Male SD rats were anesthetized with 3% chloral hydrate (300 mg/kg) through intraperitoneal injection. After being fixed in a supine position, the skin of the neck was cut about 3 cm, bluntly separated with a hemostat, and the trachea was exposed after the common carotid artery was separated. The distal end of the common carotid artery was ligated with a fine thread, and the proximal end was clamped with an arterial clamp for vascular intubation. After the intubation was fixed, the artery clamp was opened, and the blood was placed into a blood collection tube containing 3.8% trisodium citrate so that the blood was mixed well with the 3.8% trisodium citrate in a volume ratio of 9:1.
The prepared anticoagulant blood was mixed well and centrifuged for 10 minutes at 500 rpm, then the upper layer of plasma was aspirated to obtain platelet-rich plasma (PRP), and the PRP was centrifuged again for 5 minutes at 3,000 rpm. The supernatant was discarded, and the platelet precipitate was obtained, which was washed once with Ca^2+-free HEPES-Tyrode's buffer, then centrifuged at 3,000 rpm for 5 minutes. The supernatant was discarded, and the platelets were resuspended with Ca^2+-free HEPES-Tyrode's buffer to obtain the washed platelets.
First, 300 μL of Ca^2+-containing HEPES-Tyrode's solution was taken into the test cup, put into the test wells, and calibrated by pressing the “PPP” key. Subsequently, 240 μL of the washed platelets were added to the test cup, then added with 30 μL of different concentrations of drug solution, incubated for 10 minutes at 37° C. in a preheated bath, and then put into the test wells. 3 μL of 100× CaCl2 solution (final concentration of 0.2 g/L) and 30 μL of inducer (final concentration of AA of 800 μM) were added to the test wells, and then the “Start” key was pressed immediately. The maximum aggregation rate was recorded every 60 s. The measurement was repeated three times for each concentration for 10 minutes, and the aggregation curve was plotted.
The platelet aggregation inhibition rate was calculated with the following formula:
Inhibition rate (%)=(maximum aggregation rate in the model control group−maximum aggregation rate in the administration group)/maximum aggregation rate in the model control group×100%
All data were expressed as mean±standard deviation (mean±SD). SPSS 22.0 software was used for statistical analysis of the data. Intergroup data were analyzed using one-way ANOVA, with P<0.05 considered as statistically significant and P<0.01 considered as highly significant.

MCAO/R rats = test: Therapeutic administration (i.v.) in middle cerebral artery occlusion/reperfusion (MCAO/R) rats; assay type: in vivo, rat; conditions: for Bleeding time / Brain water content (%) / Cerebral infarction rate (%) / Clotting time / Neurological function score: once a day for 3 days, mean ± SD, n = 8; for Neurological function score: modified Bederson score
Method: Male SD rats weighing 250 to 300 g were taken, and the rats in each group fasted for 12 hours before modeling, while water was not restricted. According to the method of Longa et al.^[1], a rat model of MCAO/R was established by occluding the blood flow of internal carotid artery using the thread embolization method. The rats were anesthetized with 3% chloral hydrate (300 mg/kg, 1 mL/100 g body weight) through intraperitoneal injection and fixed in the supine position on the operating table. A midline incision was made in the neck, and the right common carotid artery was isolated using forceps and threaded for later use. The external and internal carotid arteries were isolated from the bifurcation of the common carotid artery. A single thread was threaded through the internal carotid artery, and two threads were threaded through the external carotid artery. Both distal and proximal ends were ligated, and the middle part of the ligation site was cut using ophthalmic scissors. The proximal main trunk of the external carotid artery was isolated and reserved for later use. The prepared cotton thread was used to half-ligate the common carotid artery (tying a slipknot), and the thread prepared for the internal carotid artery was tightened with hemostatic forceps, temporarily occluding the blood flow of the internal carotid artery. A small incision at the proximal main trunk of the external carotid artery was made using ophthalmic scissors, and then, the fishing line was held with straight forceps, inserted from this incision, and slowly advanced through the isolated proximal main trunk of the external carotid artery towards the intracranial direction of the internal carotid artery. The advancement was stopped at a predetermined position, and then the thread of the internal carotid artery that was tightened with the hemostatic forceps was loosened. […] Another thread was threaded and tightened around the proximal main trunk of the external carotid artery and the fishing line that had already been inserted into the predetermined position. The half-ligated thread on the common carotid artery was then loosened, and the skin was subsequently sutured. After 2 hours of ischemia, a small section of the fishing line was pulled out. […] After rats in the blank control group were anesthetized, only the bifurcation of the internal and external carotid arteries was exposed without the occlusion of the MCA.
Successfully modeled rats (neurological function score of 3 after reperfusion) were taken and divided into 20 groups (8 rats for each) according to the random number table method. The groups were divided into a model control group, three dose groups (high, 12 mg/kg, 2.4 mg/mL; medium, 6 mg/kg, 1.2 mg/mL; low, 3 mg/kg, 0.6 mg/mL) for each of the six test compounds, and a positive drug Ozagrel group (6 mg/kg, 1.2 mg/mL), respectively. Both blank and model control groups were administered equal volumes of mixed solvents, and the rats in each group were administered by tail vein injection (i.v.) 2 hours after reperfusion, once a day for 3 consecutive days, with a volume of 0.5 mL/100 g body weight.
Ten minutes after the last administration, the neurological function of the animals was graded according to the modified Bederson scoring method. The standard is as follows[2]: • 0 point: no neurological symptoms; • 1 point: when the rat is suspended by lifting its tail, the forelimb on the surgical side of the rat was flexed and pressed against the chest wall; • 2 points: on a smooth plane, when the rat is pushed from the surgical side to the opposite side, the resistance is less than when it is moved to the same side; • 3 points: the animal moves around or in circles when moving freely; • 4 points: flaccid paralysis, no spontaneous movement of limbs.
After Bederson scoring, the rats were executed by cervical dislocation, and the whole brain was removed and weighed. After weighing, the whole brain was placed in a −20° C. refrigerator for 20 minutes. […]

[2] = medium dose 6 mg/kg i.v. (Ozagrel group 6 mg/kg)

SMILES: Cc1cc(Cn2ccnc2)ccc1[C@H]1C[C@@H]1C(=O)O [Compound 27, (1S,2S)-2-(4-((1H-Imidazol-1-yl)methyl)-2-methylphenyl)cyclopropane-1-carboxylic acid]
- significant inhibition of AA-induced platelet aggregation [1]: can significantly inhibit

SMILES: O=C(O)[C@H]1C[C@@H]1c1ccc(Cn2cnc(Cl)c2)cc1F [Compound 33, (1S,2S)-2-(4-((4-Chloro-1H-imidazol-1-yl)methyl)-2-fluorophenyl)cyclopropane-1-carboxylic acid]
- significant inhibition of AA-induced platelet aggregation [1]: can significantly inhibit

SMILES: Cc1cc([C@@H]2C[C@H]2C(=O)O)ccc1Cn1cnc(Cl)c1 [Compound 4, (1R,2R)-2-(4-((4-Chloro-1H-imidazol-1-yl)methyl)-3-methylphenyl)cyclopropane-1-carboxylic acid]
- significant inhibition of AA-induced platelet aggregation [1]: can significantly inhibit

SMILES: O=C(O)[C@H]1C[C@@H]1c1ccc(Cn2cnc(F)c2)c(Cl)c1 [Compound 38, (1S,2S)-2-(3-Chloro-4-((4-fluoro-1H-imidazol-1-yl)methyl)phenyl)cyclopropane-1-carboxylic acid]
- significant inhibition of AA-induced platelet aggregation [1]: can significantly inhibit

SMILES: O=C(O)[C@H]1C[C@@H]1c1ccc(Cn2ccnc2)c(F)c1 [Compound 35, (1S,2S)-2-(4-((1H-Imidazol-1-yl)methyl)-3-fluorophenyl)cyclopropane-1-carboxylic acid]
- significant inhibition of AA-induced platelet aggregation [1]: can significantly inhibit

SMILES: O=C(O)[C@@H]1C[C@H]1c1ccc(Cn2cnc(Cl)c2)cc1F [Compound 13, (1R,2R)-2-(4-((4-Chloro-1H-imidazol-1-yl)methyl)-2-fluorophenyl)cyclopropane-1-carboxylic acid]
- Bleeding time (MCAO/R rats; high dose 12 mg/kg i.v.): 301.25 ± 46.40 s
- Brain water content (%) (MCAO/R rats; high dose 12 mg/kg i.v.): 80.73 ± 1.10%
- Cerebral infarction rate (%) (MCAO/R rats; high dose 12 mg/kg i.v.): 14.30%
- Clotting time (MCAO/R rats; high dose 12 mg/kg i.v.): 163.63 s
- Neurological function score (MCAO/R rats; high dose 12 mg/kg i.v.): 1.50 ± 0.53
- infarct size (MCAO/R rats; low dose): can also significantly reduce
- Bleeding time (MCAO/R rats; low dose 3 mg/kg i.v.): 303.00 ± 39.59 s
- Brain water content (%) (MCAO/R rats; low dose 3 mg/kg i.v.): 80.87 ± 2.84%
- Cerebral infarction rate (%) (MCAO/R rats; low dose 3 mg/kg i.v.): 23.02%
- Clotting time (MCAO/R rats; low dose 3 mg/kg i.v.): 146.94 ± 24.73 s
- Neurological function score (MCAO/R rats; low dose 3 mg/kg i.v.): 2.00 ± 0.53
- coagulation time of rats (MCAO/R rats; medium and high doses): can significantly prolong
- Bleeding time (MCAO/R rats; [2]): 314.50 ± 41.83 s
- Brain water content (%) (MCAO/R rats; [2]): 80.58 ± 1.56%
- Cerebral infarction rate (%) (MCAO/R rats; [2]): 22.15%
- Clotting time (MCAO/R rats; [2]): 164.56 s
- Neurological function score (MCAO/R rats; [2]): 1.88 ± 0.64
- significant inhibition of AA-induced platelet aggregation [1]: can significantly inhibit

SMILES: Cc1cc([C@H]2C[C@@H]2C(=O)O)ccc1Cn1cnc(F)c1 [Compound 28, (1S,2S)-2-(4-((4-Fluoro-1H-imidazol-1-yl)methyl)-3-methylphenyl)cyclopropane-1-carboxylic acid]
- significant inhibition of AA-induced platelet aggregation [1]: can significantly inhibit

SMILES: Cc1cc(Cn2cnc(F)c2)ccc1[C@H]1C[C@@H]1C(=O)O [Compound 25, (1S,2S)-2-(4-((4-Fluoro-1H-imidazol-1-yl)methyl)-2-methylphenyl)cyclopropane-1-carboxylic acid]
- significant inhibition of AA-induced platelet aggregation [1]: can significantly inhibit

SMILES: Cc1cc(Cn2ccnc2)ccc1[C@@H]1C[C@H]1C(=O)O [Compound 7, (1R,2R)-2-(4-((1H-Imidazol-1-yl)methyl)-2-methylphenyl)cyclopropane-1-carboxylic acid]
- significant inhibition of AA-induced platelet aggregation [1]: can significantly inhibit

SMILES: O=C(O)[C@H]1C[C@@H]1c1ccc(Cn2cnc(Cl)c2)c(F)c1 [Compound 34, (1S,2S)-2-(4-((4-Chloro-1H-imidazol-1-yl)methyl)-3-fluorophenyl)cyclopropane-1-carboxylic acid]
- significant inhibition of AA-induced platelet aggregation [1]: can significantly inhibit

SMILES: Cc1cc([C@@H]2C[C@H]2C(=O)O)ccc1Cn1cnc(F)c1 [Compound 8, (1R,2R)-2-(4-((4-Fluoro-1H-imidazol-1-yl)methyl)-3-methylphenyl)cyclopropane-1-carboxylic acid]
- significant inhibition of AA-induced platelet aggregation [1]: can significantly inhibit

SMILES: O=C(O)[C@H]1C[C@@H]1c1ccc(Cn2cnc(Cl)c2)c(Cl)c1 [Compound 31, (1S,2S)-2-(3-Chloro-4-((4-chloro-1H-imidazol-1-yl)methyl)phenyl)cyclopropane-1-carboxylic acid]
- significant inhibition of AA-induced platelet aggregation [1]: can significantly inhibit

SMILES: O=C(O)[C@H]1C[C@@H]1c1ccc(Cn2ccnc2)cc1 [Compound 20, (1S,2S)-2-(4-((1H-Imidazol-1-yl)methyl)phenyl)cyclopropane-1-carboxylic acid]
- significant inhibition of AA-induced platelet aggregation [1]: can significantly inhibit

SMILES: Cc1cc(Cn2cnc(F)c2)ccc1[C@@H]1C[C@H]1C(=O)O [Compound 5, (1R,2R)-2-(4-((4-Fluoro-1H-imidazol-1-yl)methyl)-2-methylphenyl)cyclopropane-1-carboxylic acid]
- significant inhibition of AA-induced platelet aggregation [1]: can significantly inhibit

SMILES: O=C(O)[C@H]1C[C@@H]1c1ccc(Cn2cnc(F)c2)cc1F [Compound 37, (1S,2S)-2-(2-Fluoro-4-((4-fluoro-1H-imidazol-1-yl)methyl)phenyl)cyclopropane-1-carboxylic acid]
- significant inhibition of AA-induced platelet aggregation [1]: can significantly inhibit

SMILES: Cc1cc([C@H]2C[C@@H]2C(=O)O)ccc1Cn1cnc(Cl)c1 [Compound 24, (1S,2S)-2-(4-((4-Chloro-1H-imidazol-1-yl)methyl)-3-methylphenyl)cyclopropane-1-carboxylic acid]
- significant inhibition of AA-induced platelet aggregation [1]: can significantly inhibit

SMILES: O=C(O)[C@@H]1C[C@H]1c1ccc(Cn2cnc(Cl)c2)c(F)c1 [Compound 14, (1R,2R)-2-(4-((4-Chloro-1H-imidazol-1-yl)methyl)-3-fluorophenyl)cyclopropane-1-carboxylic acid]
- significant inhibition of AA-induced platelet aggregation [1]: can significantly inhibit
